In US7592457B2 (Korea Research Institute of Chemical Technology, priority 2004, dated 2009):
Read-outs that look alike come from different tables or passages of the source.

Columns and labels:
[1] = target: T1, 5-HT1a (Homo sapiens, UniProt P08908); assay: Radioligand binding, 5-HT1a ([3H]8-OH-DPAT); settings: read-out: Binding affinity (Inhibition rate % at 10 μM) 5HT1a
T1 construct: purchased Euroscreen/BioSignal Packard Inc
T1 sequence (P08908 1-422): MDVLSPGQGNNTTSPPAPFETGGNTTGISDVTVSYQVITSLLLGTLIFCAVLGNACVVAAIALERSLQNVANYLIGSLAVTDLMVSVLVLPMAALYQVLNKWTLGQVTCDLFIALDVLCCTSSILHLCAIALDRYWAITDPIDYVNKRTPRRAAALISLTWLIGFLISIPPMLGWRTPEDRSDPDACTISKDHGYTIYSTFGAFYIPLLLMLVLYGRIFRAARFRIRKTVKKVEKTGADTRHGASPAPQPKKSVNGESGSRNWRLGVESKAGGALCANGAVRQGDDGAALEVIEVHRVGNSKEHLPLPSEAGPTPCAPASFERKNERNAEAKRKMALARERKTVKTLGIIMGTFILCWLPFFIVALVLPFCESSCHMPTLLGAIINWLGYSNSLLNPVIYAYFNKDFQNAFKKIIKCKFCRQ
Protocol: (§1) Radioligand bindings were performed according to the test method provided by the supplier of receptor membrane (Euroscreen/BioSignal Packard Inc.).

[2] = target: T2, 5-HT7 (Homo sapiens, UniProt P34969); assay: Radioligand binding, 5-HT7 ([3H]LSD); settings: read-out: Binding affinity (Inhibition rate % at 10 μM) 5HT7
T2 construct: purchased Euroscreen/BioSignal Packard Inc
T2 sequence (P34969 whole entry): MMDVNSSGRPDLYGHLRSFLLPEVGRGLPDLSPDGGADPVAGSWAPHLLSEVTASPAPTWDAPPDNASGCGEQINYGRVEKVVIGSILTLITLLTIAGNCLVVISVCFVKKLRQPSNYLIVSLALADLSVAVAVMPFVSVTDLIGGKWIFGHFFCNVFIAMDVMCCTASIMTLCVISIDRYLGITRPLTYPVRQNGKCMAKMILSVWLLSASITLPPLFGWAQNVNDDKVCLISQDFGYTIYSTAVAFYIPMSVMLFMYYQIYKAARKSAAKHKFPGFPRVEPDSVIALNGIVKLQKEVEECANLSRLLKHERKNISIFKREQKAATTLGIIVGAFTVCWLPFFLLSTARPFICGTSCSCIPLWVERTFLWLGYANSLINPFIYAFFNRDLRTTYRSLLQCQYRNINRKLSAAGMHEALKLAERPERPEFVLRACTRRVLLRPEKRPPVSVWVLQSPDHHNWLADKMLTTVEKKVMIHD
Protocol: as §1

[3] = target: T3, 5-HT2c (Homo sapiens, UniProt P28335); assay: Radioligand binding, 5-HT2c ([3H]Mesulergine); settings: read-out: Binding affinity (Inhibition rate % at 10 μM) 5HT2c
T3 construct: purchased Euroscreen/BioSignal Packard Inc
T3 sequence (P28335 33-458): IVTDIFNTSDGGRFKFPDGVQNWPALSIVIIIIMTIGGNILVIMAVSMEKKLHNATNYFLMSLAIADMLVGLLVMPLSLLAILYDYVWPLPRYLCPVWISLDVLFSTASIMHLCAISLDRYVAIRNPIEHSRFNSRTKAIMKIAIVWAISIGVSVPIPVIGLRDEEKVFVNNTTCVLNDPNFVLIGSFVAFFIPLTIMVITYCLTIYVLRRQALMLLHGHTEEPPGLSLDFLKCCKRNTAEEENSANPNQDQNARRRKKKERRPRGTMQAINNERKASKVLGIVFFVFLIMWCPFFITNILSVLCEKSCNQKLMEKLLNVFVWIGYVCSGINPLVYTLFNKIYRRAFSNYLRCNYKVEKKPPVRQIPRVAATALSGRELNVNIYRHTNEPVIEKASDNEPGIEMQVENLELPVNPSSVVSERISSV
Protocol: as §1

[4] = target: T4, hD4.2 receptor (Homo sapiens, UniProt P21917, DEL265-296); assay: Radioligand binding, dopamine D4 ([3H]YM-09151-2); settings: read-out: Binding affinity (Inhibition rate % at 10 μM) D4
T4 construct: purchased BioSignal Packard Inc., Montreal, Canada
T4 sequence (P21917 with tags, fused parts or gaps DEL265-296): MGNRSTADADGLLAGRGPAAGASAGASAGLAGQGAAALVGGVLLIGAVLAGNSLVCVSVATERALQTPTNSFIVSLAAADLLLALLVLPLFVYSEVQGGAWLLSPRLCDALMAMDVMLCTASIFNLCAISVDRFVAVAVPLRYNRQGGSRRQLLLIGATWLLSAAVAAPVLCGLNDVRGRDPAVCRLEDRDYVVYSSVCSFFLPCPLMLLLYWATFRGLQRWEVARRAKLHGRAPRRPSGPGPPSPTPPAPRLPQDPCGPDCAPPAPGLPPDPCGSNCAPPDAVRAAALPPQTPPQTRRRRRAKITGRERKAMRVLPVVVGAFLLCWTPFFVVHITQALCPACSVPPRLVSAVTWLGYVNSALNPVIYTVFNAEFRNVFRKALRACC

[5] = target: T5, hD2L receptor (Homo sapiens, UniProt P14416); assay: Radioligand binding, dopamine D2 ([3H]spiperone); settings: read-out: Binding affinity (Inhibition rate % at 10 μM) D2
T5 construct: purchased BioSignal Packard Inc., Montreal, Canada
T5 sequence (P14416 whole entry): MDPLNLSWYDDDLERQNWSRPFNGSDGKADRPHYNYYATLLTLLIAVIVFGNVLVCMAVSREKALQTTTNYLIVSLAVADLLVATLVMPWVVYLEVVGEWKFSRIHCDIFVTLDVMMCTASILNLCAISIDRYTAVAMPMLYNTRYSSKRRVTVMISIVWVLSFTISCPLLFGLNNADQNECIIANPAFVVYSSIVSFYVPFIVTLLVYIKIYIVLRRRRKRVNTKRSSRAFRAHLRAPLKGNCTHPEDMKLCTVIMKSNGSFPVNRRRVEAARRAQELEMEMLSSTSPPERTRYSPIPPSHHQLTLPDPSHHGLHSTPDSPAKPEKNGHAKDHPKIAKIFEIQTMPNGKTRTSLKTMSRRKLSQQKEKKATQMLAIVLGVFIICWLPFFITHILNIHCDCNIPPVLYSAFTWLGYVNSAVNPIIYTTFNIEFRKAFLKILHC

[6] = target: D1 (Homo sapiens, UniProt P21728); assay: Radioligand binding for selectivity, D1; settings: read-out: Binding affinity (Inhibition rate % at 10 μM) D1
D1, sequence (P21728 whole entry): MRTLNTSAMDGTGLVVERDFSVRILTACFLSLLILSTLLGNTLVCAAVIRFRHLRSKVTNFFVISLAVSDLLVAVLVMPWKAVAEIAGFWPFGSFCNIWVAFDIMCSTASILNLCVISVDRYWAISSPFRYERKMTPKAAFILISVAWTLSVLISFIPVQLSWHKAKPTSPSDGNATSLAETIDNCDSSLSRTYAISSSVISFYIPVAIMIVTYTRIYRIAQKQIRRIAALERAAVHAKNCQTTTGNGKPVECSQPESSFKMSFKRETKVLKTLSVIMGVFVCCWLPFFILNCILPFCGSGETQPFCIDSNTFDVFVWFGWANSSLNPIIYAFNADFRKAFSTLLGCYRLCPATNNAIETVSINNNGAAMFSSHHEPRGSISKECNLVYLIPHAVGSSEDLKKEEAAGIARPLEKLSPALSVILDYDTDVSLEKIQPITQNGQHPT

[7] = target: T6, human serotonin 5-HT6 receptor (Homo sapiens, UniProt P50406); assay: [3H]LSD binding at cloned 5-HT6 receptors; settings: for inhibition at 10 µM: read-out: Binding affinity (Inhibition rate % at 10 μM) 5HT6; for 5-HT6 affinity compared with known selective antagonists: in words
T6 construct: made in house; host or cells: Sf21 insect cells (pBacPAK8 baculovirus vector)
T6 sequence (P50406 whole entry): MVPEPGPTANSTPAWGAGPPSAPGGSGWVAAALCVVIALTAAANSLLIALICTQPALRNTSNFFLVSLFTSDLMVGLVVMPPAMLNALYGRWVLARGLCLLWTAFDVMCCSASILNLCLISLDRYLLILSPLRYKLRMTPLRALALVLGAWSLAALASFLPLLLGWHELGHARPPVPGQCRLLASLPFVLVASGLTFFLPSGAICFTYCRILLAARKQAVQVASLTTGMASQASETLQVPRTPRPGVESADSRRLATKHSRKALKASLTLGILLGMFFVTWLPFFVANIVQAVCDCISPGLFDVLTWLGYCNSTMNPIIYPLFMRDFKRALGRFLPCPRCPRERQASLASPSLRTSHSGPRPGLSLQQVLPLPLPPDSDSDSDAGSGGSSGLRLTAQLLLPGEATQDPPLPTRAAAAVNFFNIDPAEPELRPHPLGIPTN

[8] = target: T7, hD3 receptor (Homo sapiens, UniProt P35462); assay: Radioligand binding, dopamine D3 ([3H]spiperone); settings: read-out: Binding affinity (Inhibition rate % at 10 μM) D3
T7 construct: purchased BioSignal Packard Inc., Montreal, Canada
T7 sequence (P35462 whole entry): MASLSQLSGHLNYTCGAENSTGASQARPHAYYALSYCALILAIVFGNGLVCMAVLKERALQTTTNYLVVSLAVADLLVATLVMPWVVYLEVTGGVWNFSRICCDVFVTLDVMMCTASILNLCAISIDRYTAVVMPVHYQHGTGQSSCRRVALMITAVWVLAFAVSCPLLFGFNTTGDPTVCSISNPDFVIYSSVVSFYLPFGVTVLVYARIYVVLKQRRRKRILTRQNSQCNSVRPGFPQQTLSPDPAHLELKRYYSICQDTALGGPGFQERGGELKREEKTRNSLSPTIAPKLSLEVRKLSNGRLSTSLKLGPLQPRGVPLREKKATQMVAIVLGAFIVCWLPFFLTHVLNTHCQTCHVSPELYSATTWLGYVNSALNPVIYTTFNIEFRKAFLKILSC

[9] = target: T8, 5-HT2a (Homo sapiens, UniProt P28223); assay: Radioligand binding, 5-HT2a ([3H]Ketanserin); settings: read-out: Binding affinity (Inhibition rate % at 10 μM) 5HT2a
T8 construct: purchased Euroscreen/BioSignal Packard Inc
T8 sequence (P28223 whole entry): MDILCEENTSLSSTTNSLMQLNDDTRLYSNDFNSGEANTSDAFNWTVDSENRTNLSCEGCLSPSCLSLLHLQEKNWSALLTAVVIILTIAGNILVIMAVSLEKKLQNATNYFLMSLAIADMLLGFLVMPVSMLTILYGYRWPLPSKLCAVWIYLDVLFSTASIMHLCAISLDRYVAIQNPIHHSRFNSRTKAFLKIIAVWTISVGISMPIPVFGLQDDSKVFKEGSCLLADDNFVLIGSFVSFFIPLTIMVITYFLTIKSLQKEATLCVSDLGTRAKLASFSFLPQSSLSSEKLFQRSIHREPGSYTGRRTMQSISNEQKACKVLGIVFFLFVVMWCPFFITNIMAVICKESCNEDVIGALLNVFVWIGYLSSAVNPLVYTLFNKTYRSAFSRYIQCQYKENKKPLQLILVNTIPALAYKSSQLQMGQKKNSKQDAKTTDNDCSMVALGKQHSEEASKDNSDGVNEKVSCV
Protocol: as §1

[10] = [3H]LSD 1.87 nM, cloned receptor membranes, 37° C., 60 min, read-out: IC50

Compound | inhibition at 10 µM [1] | inhibition at 10 µM [2] | inhibition at 10 µM [3] | inhibition at 10 µM [4] | inhibition at 10 µM [5] | inhibition at 10 µM [6] | IC50 [7, 10] | inhibition at 10 µM [7] | inhibition at 10 µM [8] | melting point | inhibition at 10 µM [9] | 5-HT6 affinity compared with known selective antagonists [7] | IC50 [7]
CC1(c2ccccc2)C(=O)Nc2cc(Cl)c(Cl)cc2C1=O (stereo not shown) [Example 9, 6,7-dichloro-3-methyl-3-phenyl-1H-quinoline-2,4-dione] | 45.2% | 10.8% | 30.4% | 0% | 8.2% | 26.2% | 1060 nM | 71.2% | 10.8% | 213 to 214 °C | 16.6% |  | 
COc1ccc(C2(C)C(=O)Nc3cc(Cl)cc(Cl)c3C2=O)cc1[N+](=O)[O-] (stereo not shown) [Example 21, 5,7-dichloro-3-(4-methoxy-3-nitro-phenyl)-3-methyl-1H-quinoline-2,4-dione] | 15.9% | 0% | 10.8% | 0% | 10.5% | 40.2% | 1230 nM | 73.7% | 16.4% | 255 to 256 °C | 16.3% |  | 
CC1(c2ccc(O)c([N+](=O)[O-])c2)C(=O)Nc2cc(Cl)cc(Cl)c2C1=O (stereo not shown) [Example 22, 5,7-dichloro-3-(4-hydroxy-3-nitro-phenyl)-3-methyl-1H-quinoline-2,4-dione] | 68.7% | 36.3% | 2.5% | 0% | 11.2% | 35.7% | 1010 nM | 72.5% | 34% | 239 to 240 °C | 50.9% |  | 
CCN(CC)c1ccc(C2(C)C(=O)Nc3cc(Cl)cc(Cl)c3C2=O)cc1 (stereo not shown) [Example 42, 5,7-dichloro-3-(4-diethylamino-phenyl)-3-methyl-1H-quinoline-2,4-dione] | 6.5% | 10.1% | 13.7% | 8.5% | 15.7% | 38.7% | 15 nM | 69.5% | 25.3% | 247 to 249 °C | 16.9% | almost same affinities as or better affinities than known selective antagonists | 
CN1CCN(c2ccc3c(c2)NC(=O)C(C)(c2ccc(N)cc2)C3=O)CC1 (stereo not shown) [Example 50, 3-(4-amino-phenyl)-3-methyl-7-(4-methyl-piperazine-1-yl)-1H-quinoline-2,4-dione] | 6.7% | 20.5% | 15.4% | 0% | 8.2% | 34.1% | 942 nM | 74.5% | 50.1% | 265 to 267 °C | 21.5% |  | 
C[C@H](NC(=O)Oc1ccc(C2(C)C(=O)Nc3cc(Cl)cc(Cl)c3C2=O)cc1)c1ccccc1 (stereo partly shown) [Example 25] | 35.9% | 30.6% | 4% | 0% | 8.4% | 54.1% |  | 69.8% | 10.2% | 110 to 115 °C | 16.7% |  | 816 nM
COc1cc(C2(C)C(=O)Nc3ccccc3C2=O)ccc1O (stereo not shown) [Example 31, 3-(4-hydroxy-3-methoxy-phenyl)-3-methyl-1H-quinoline-2,4-dione] | 31.2% | 16.4% | 10.2% | 0% | 9.2% | 37.1% | 801 nM | 70.6% | 9.8% | 168 to 169 °C | 43.5% |  | 
CC1(c2ccc(N)cc2)C(=O)Nc2cc(Cl)ccc2C1=O (stereo not shown) [Example 38, 3-(4-amino-phenyl)-7-chloro-3-methyl-1H-quinoline-2,4-dione] | 51.9% | 17.4% | 20.7% | 5.8% | 16.5% | 44.3% | 585 nM | 74.1% | 16.8% | 155 to 156 °C | 31.5% |  | 
CC1(c2cccc(OCc3ccccc3)c2)C(=O)Nc2cc(Cl)cc(Cl)c2C1=O (stereo not shown) [Example 19, 3-(3-benzyloxy-phenyl)-5,7-dichloro-3-methyl-1H-quinoline-2,4-dione] | 88.8% | 69.5% | 0% | 0% | 37.8% | 92.6% | 134 nM | 74.9% | 37.4% | 201 to 203 °C | 67.3% |  | 
CN(C)c1cc(Cl)c2c(c1)NC(=O)C(C)(c1ccccc1)C2=O (stereo not shown) [Example 11, 5-chloro-7-dimethylamino-3-methyl-3-phenyl-1H-quinoline-2,4-dione] | 49.5% | 35.2% | 20% | 0.4% | 19.3% | 40.5% | 1160 nM | 70.7% | 20.5% | 224 to 226 °C | 30.4% |  | 
CC1(c2ccccc2)C(=O)Nc2ccccc2C1=O (stereo not shown) [Example 2, 3-methyl-3-phenyl-1H-quinoline-2,4-dione] | 15% | 10.4% | 30.6% | 0% | 5.6% | 10.2% | 1080 nM | 73.2% | 12.2% | 194 to 196 °C | 8.4% |  | 
CC1(c2ccccc2)C(=O)Nc2cc(Br)cc(Br)c2C1=O (stereo not shown) [Example 4, 5,7-dibromo-3-methyl-3-phenyl-1H-quinoline-2,4-dione] | 11.7% | 13% | 29.8% | 0% | 3% | 23.7% | 320 nM | 70.9% | 15.8% | 202 to 203 °C | 13.6% |  | 
COc1ccc(C2(C)C(=O)Nc3cc(Cl)cc(Cl)c3C2=O)cc1 (stereo not shown) [Example 12, 5,7-dichloro-3-(4-methoxy-phenyl)-3-methyl-1H-quinoline-2,4-dione] | 40.2% | 23.1% | 5.7% | 0% | 16.3% | 15.7% | 917 nM | 73.3% | 24% | 210 to 212 °C | 8.5% | almost same affinities as or better affinities than known selective antagonists | 
